Experimental data reported in patent US4831041A, “Imidazopyridine compounds and processes for preparation thereof” (Fujisawa Pharmaceutical Co., Ltd., priority 1986, dated 1989).

Assays:
[1] = system: ethanol ulcer; experiment: Inhibition on ethanol ulcer; assay type: in vivo, Sprague-Dawley rats; conditions: 32 mg/kg, oral, 30 minutes before absolute ethanol (5 ml/kg); rats sacrificed one hour later; mean ulcer area vs control
Description: (A) Inhibition on ethanol ulcer
Five male Sprague-Dawley rats, aged 7 weeks and weighing about 200 g, were used per group for the study on ethanol ulcer after the fast for 24 hours.
Test compound was suspended in 0.1% methylcellulose aqueous solution, and the suspension (5 ml/kg) was orally given to each rat.
The control group was given a vehicle, i.e. 0.1% methylcellulose aqueous solution (5 ml/kg), alone in the same way.
Absolute ethanol (5 ml/kg) was orally administered 30 minutes after dosing with test compound, and one hour later, the rats were sacrificed and their stomachs were removed. The area of ulcers of each rat was measured. The mean area […] in the medicated group was compared with that in the control group.

[2] = system: Stress Ulcer; experiment: Inhibition on Stress Ulcer; assay type: in vivo, Sprague-Dawley rats; conditions: 32 mg/kg, oral, just before immobilization in water bath at 22° C.; seven hours; mean ulcer area vs control
Description: (B) Inhibition on Stress Ulcer
Five Sprague-Dawley rats weighing about 200 g were used per group. Each animal was immobilized in a small cage and put in a water bath allowing to respire. The temperature of the water bath kept at 22° C. The test compound was administered orally just before the immobilization. Seven hours later, the animals were sacrificed and their stomachs were removed. The stomach was then fixed with 2% formalin. The area of ulcers was measured for each animal. The mean area (mm^2) in the medicated animals was compared with that in the control animals.

## C#CCc1c(C)nc2c(OCc3c(C)cccc3NC(=O)OC)cccn12 [Test Compound (1), 8-(2-Methoxycarbonylamino-6-methylbenzyloxy)-2-methyl-3-(2-propynyl)imidazo[1,2-a]pyridine]
[1]
  Inhibition % (ethanol ulcer area): 93.2%
[2]
  Inhibition % (stress ulcer area): 100%

## C#CCc1c(C)nc2c(OCc3c(C)cccc3NC(C)=O)cccn12 [Test Compound (2), 8-(2-Acetamido-6-methylbenzyloxy)-2-methyl-3(2-propynyl)imidazo[1,2-a]pyridine]
[2]
  Inhibition % (stress ulcer area): 100%

## C#CCc1c(C)nc2c(OCc3c(C)cccc3NC(N)=O)cccn12 [Test Compound (3), 2-methyl-8-(2-methyl-6-ureidobenzyloxy)-3-(2propynyl)imidazo[1,2-a]pyridin]
[2]
  Inhibition % (stress ulcer area): 100%

## C#CCc1c(C)nc2c(OCc3c(C)cccc3NC(N)=S)cccn12 [Test Compound (4), 2-Methyl-8-(2-methyl-6-thioureidobenzyloxy)-3(2-propynyl)imidazo[1,2-a]pyridine]
[2]
  Inhibition % (stress ulcer area): 100%
